{"source": "paper PMC4628711", "about": "“Antiproliferative and Antiestrogenic Activities of Bonediol an Alkyl Catechol from Bonellia macrocarpa” (BioMed Research International, 2015)", "key": {"[1]": {"biological_target": "T1, ERα (estrogen receptor α) (Homo sapiens, UniProt P03372)", "T1 construct": "gene ESR1", "T1 sequence (P03372 1-595)": "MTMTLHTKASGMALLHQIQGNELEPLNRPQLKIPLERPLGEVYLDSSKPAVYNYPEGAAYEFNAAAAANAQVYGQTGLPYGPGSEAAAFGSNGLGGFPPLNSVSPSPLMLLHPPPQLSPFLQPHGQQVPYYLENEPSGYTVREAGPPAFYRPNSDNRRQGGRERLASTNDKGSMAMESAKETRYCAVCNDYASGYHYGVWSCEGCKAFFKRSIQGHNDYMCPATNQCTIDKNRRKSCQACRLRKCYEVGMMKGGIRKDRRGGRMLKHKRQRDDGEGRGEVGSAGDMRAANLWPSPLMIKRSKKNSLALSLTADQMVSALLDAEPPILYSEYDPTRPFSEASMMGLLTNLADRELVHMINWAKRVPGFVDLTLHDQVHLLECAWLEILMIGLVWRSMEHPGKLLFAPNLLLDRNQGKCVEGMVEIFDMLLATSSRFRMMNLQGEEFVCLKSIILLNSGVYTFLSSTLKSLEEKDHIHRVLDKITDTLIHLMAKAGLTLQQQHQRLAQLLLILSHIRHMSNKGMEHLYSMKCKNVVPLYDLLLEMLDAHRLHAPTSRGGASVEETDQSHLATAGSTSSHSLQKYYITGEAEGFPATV", "assay": "competitive [3H]-17β-estradiol radioligand binding, in vitro translated receptor (TNT reticulocyte lysate)"}, "[2]": {"biological_target": "T2, ERβ (estrogen receptor β) (Homo sapiens, UniProt Q92731)", "T2 construct": "gene ESR2", "T2 sequence (Q92731 whole entry)": "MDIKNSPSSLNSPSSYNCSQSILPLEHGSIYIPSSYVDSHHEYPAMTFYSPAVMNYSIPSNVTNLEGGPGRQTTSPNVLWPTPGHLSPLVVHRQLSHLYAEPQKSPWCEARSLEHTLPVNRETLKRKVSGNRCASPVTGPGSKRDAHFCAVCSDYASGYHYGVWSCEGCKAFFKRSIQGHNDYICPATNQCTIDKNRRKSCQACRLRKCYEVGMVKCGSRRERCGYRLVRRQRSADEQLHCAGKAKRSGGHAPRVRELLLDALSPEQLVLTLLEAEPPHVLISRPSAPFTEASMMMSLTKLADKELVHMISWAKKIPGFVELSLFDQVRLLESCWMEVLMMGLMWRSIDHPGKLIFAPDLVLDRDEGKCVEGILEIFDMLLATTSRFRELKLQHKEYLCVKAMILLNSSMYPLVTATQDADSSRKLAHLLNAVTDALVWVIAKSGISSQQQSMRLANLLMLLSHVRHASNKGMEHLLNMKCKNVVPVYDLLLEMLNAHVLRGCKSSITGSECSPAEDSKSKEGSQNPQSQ", "assay": "competitive [3H]-17β-estradiol radioligand binding, in vitro translated receptor (TNT reticulocyte lysate)"}}}
{"substance": "bonediol", "values": [{"measurement": "IC50", "setting": "[1]", "value": 2500, "unit": "nM"}, {"measurement": "IC50", "setting": "[2]", "value": 2100, "unit": "nM"}]}
